Several values for one entry are separate records, joined by “and”; a condition that tells them apart may be missing. Identical values can stand only once. Like-named read-outs stand apart in the source and are kept apart here.
Columns and labels:
[1] = Hygroscopicity / moisture sorption (weight gain vs RH); assay type: physicochemical
Excerpt: The different water contents prompted an investigation into the moisture sorption characteristics of those lots of crystalline FB-HCl that were not anhydrous. […] Crystalline FB-HCl material capable of water sorption is hereafter referred to as “hygroscopic F-I”.

[2] = tested on: VEGF-induced neo-angiogenesis; assay: VEGF-induced neo-angiogenesis in the rat corneal micropocket; assay type: in vivo; details: administered orally for 10 days
Excerpt: (§1) The salt of the present invention is an inhibitor of vascular endothelial growth factor (VEGF)-induced angiogenesis. […] These assay systems are more fully described in WO 02/02116. The salt of the present invention is, thus, effective in treating cancer and inhibiting tumor growth.

[3] = Plasma pharmacokinetics after single oral gavage, cross-over design; assay type: in vivo; details: fed female beagle dogs; for AUC0-24 / AUC0-inf / Cmax: single oral 5 mg/kg by gavage, individual animals 1-6, 5 mg/kg
Protocol: The 6 dogs were randomized into two treatment groups to receive single doses of FB Form I followed by a single dose of F-I two weeks later, or vice versa. On Days 1 and 14, 3 dogs received FB Form 1 and 3 dogs received F-I, and blood samples were collected at 0.5, 1, 2, 3, 4, 8, 12 and 24 hours post dosing. Concentrations of FB Form I were determined by liquid chromatography tandem mass spectrometry.

[4] = tested on: VEGF-stimulated proliferation of HUVEC cells; assay: VEGF-stimulated proliferation of HUVEC cells in culture; assay type: cell-based; details: 72 hours of exposure
Excerpt: as §1

[5] = Equilibrium solubility in aqueous media at ambient temperature, HPLC after 24 hours; assay type: physicochemical; details: for Amt Dissolved: 24 hours equilibration
Protocol: Extensive equilibrium solubility determinations were undertaken for both hygroscopic and anhydrous F-I in a variety of aqueous media at ambient temperature. Additionally, the equilibrium solubility of FB Form I was measured at ambient temperature.

[6] = Intrinsic dissolution of 100 mg compact; assay type: physicochemical; details: for % of 100 mg Compact Dissolved in 10 Minutes: Dissolution Medium 0.1 N HCl
Protocol: To confirm that variability in the hygroscopicity of F-I lots should not adversely impact bioavailability, intrinsic dissolution rates were also measured for the hygroscopic and anhydrous F-I. For comparison purposes, the intrinsic dissolution rate of FB Form I was also measured.

[7] = 0.01 N HCl, ambient temperature
[8] = SIF, fed pH 5.0, ambient temperature
[9] = pH 2.2 buffer, ambient temperature

Cl.Cn1cc(C2=C(c3cn(C4CCN(Cc5ccccn5)CC4)c4ccccc34)C(=O)NC2=O)c2ccccc21 [F-I]
hygroscopicity [1]: not significantly hygroscopic | weight gain ([1]; at 95% RH): < 2% | hygroscopicity ([1]; between 0-70% RH): relatively non-hygroscopic | inhibition of VEGF-induced neo-angiogenesis in the rat corneal micropocket [2]: highly effective inhibitor | plasma exposure (AUC 0 to 24 hr and 0 to infinity) compared with FB Form I ([3]; single oral 5 mg/kg): significantly higher | AUC0-24 ([3]; mono-hydrochloride): 3.5923 µM·h and 1.735 µM·h and 2.97 µM·h and 4.0644 µM·h and 6.1501 µM·h and 2.9445 µM·h | AUC0-inf ([3]; mono-hydrochloride): 3.8286 µM·h and 1.7984 µM·h and 3.0161 µM·h and 4.2008 µM·h and 6.6308 µM·h and 2.9983 µM·h | Cmax ([3]; mono-hydrochloride): 481 nM and 327 nM and 679 nM and 501 nM and 774 nM and 450 nM | inhibition of VEGF-stimulated proliferation of HUVEC cells [4]: potent inhibitor

Cn1cc(C2=C(c3cn(C4CCN(Cc5ccccn5)CC4)c4ccccc34)C(=O)NC2=O)c2ccccc21 [FB Form I]
Filtrate pH ([5]; 0.01 N HCl): 2.20 | Amt Dissolved [5, 7]: 0.279 mg/mL and 0.355 mg/mL | Filtrate pH ([5]; SIF, fed pH 5.0): 4.94 | Amt Dissolved [5, 8]: 0.073 mg/mL and 0.074 mg/mL | Filtrate pH ([5]; pH 2.2 buffer): 2.21 | Amt Dissolved [5, 9]: 0.346 mg/mL and 0.336 mg/mL | dissolution of a 100 mg compact within 10 minutes [6]: > 10% | % of 100 mg Compact Dissolved in 10 Minutes [6]: >30% | AUC0-24 [3]: 2.4431 µM·h and 0.3893 µM·h and 2.0924 µM·h and 3.4775 µM·h and 5.1195 µM·h and 2.2702 µM·h | AUC0-inf [3]: 2.5786 µM·h and 0.4006 µM·h and 2.1139 µM·h and 3.6031 µM·h and 5.3331 µM·h and 2.3063 µM·h | Cmax [3]: 336 nM and 99.8 nM and 532 nM and 600 nM and 552 nM and 718 nM

Cl.Cn1cc(C2=C(C3CCN(Cc4ccccn4)CC3)C(=O)NC2=O)c2ccccc21 [Hygroscopic F-I]
Filtrate pH ([5]; 0.01 N HCl): 2.25 | Amt Dissolved [5, 7]: 0.046 mg/mL and 0.053 mg/mL | Filtrate pH ([5]; SIF, fed pH 5.0): 4.93 | Amt Dissolved [5, 8]: 0.014 mg/mL and 0.015 mg/mL | Filtrate pH ([5]; pH 2.2 buffer): 2.26 | Amt Dissolved [5, 9]: 0.324 mg/mL and 0.352 mg/mL | dissolution of a 100 mg compact within 10 minutes [6]: no appreciable dissolution | % of 100 mg Compact Dissolved in 10 Minutes [6]: <<0.5% | maximum moisture sorption ([1]; at 40% RH): 1.6%

tartrate
hygroscopicity [1]: only slightly hygroscopic | weight gain ([1]; at RH's up to 70%): ~1%
